Data published in paper PMC5770468, “Cardiac glycoside/aglycones inhibit HIV-1 gene expression by a mechanism requiring MEK1/2-ERK1/2 signaling” (Scientific Reports, 2018).

Assays:
ERK1/2 = ERK1/2 activation (phospho/total) by western blot in HeLa rtTA-HIV(Gag-GFP) cells; assay type: cell-based, human; conditions: relative to DMSO (+)
Experimental: Figure 6 CSs control HIV-1 gene expression through intracellular signaling. HeLa rtTA-HIV(Gag-GFP) cells were pre-treated with/without pathway inhibitor overnight (~15 h) and treated with ~IC80s of CSs. […] (a–c) ERK1/2, MK-2, and JNK1/2/3 are activated upon treatment of cells with CSs (n ≥ 4–6, 3–4, and 3–6, resp., mean, s.e.m.). Graphs quantifying the activation level (phospho/total protein) of each MAP/MAPK by western blot. In (a), the results of pre-treating cells with a MEK1/2 inhibitor (12 μM U0126, MEKi) on ERK1/2 activation is also shown and a representative immunoblot is provided in Supplementary Figure S9c. (d) Representative immunoblots of MAP/MAPK activation levels from (a–c). (e–g) MEK1/2 activation may be involved in CS inhibition of HIV-1 gene expression. The signaling pathway(s) used by a CS to inhibit HIV-1 expression was determined by detecting Gag-GFP fluorescence in cell lysates (~35 μg) by reducing SDS-PAGE after pre-treatment of cells with a MEK1/2 (12 μM U0126, white), p38α/β/β2 (15 μM SB203580/p38i, gray), or JNK1/2/3 (1.25 μM SP600125/JNKi, hatched) inhibitor (n ≥ 5–7, 4–8, and 3–7, resp., mean, s.e.m.). Results were shown relative to DMSO (+). […]
Figure 7 Activation of the MEK1/2-ERK1/2 signaling pathway suppresses HIV-1 gene expression. […] RNAs were quantified by qRT-PCR as described in Figures 4a,b. […]

HIV-1 Gag expression = assay: HIV-1 Gag-GFP expression in HeLa rtTA-HIV(Gag-GFP) cells; assay type: cell-based; conditions: 220 nM
Experimental: Figure 7 Activation of the MEK1/2-ERK1/2 signaling pathway suppresses HIV-1 gene expression. HeLa rtTA-HIV(Gag-GFP) cells were pre-treated overnight (~15 h) with/without an inhibitor of MEK1/2 (12 μM U0126, MEKi, white), p38α/β/β2 (15 μM SB203580, p38i, light gray), JNK1/2/3 (1.25 μM SP600125, JNKi, hatched), or NCX (5 μM KB-R7943, NCXi, gray) and treated with a MEK1/2-ERK1/2 activator, anisomycin, to isolate the pathway signal as described (and run in parallel for verification of inhibitor activity) in Figures 6 and 5d–f. Cells were monitored for HIV-1 gene expression by detecting Gag-GFP fluorescence in cell lysates (35 μg) resolved on reducing SDS-PAGE, levels of ERK activation by immunoblotting of phospho- and total-ERK from cell lysates, and extent of viral RNA expression by qRT-PCR of mRNAs extracted. […] RNAs were quantified by qRT-PCR as described in Figures 4a,b. […]
Using the same methods and conditions described for HeLa rtTA-HIV-ΔMls cells, HeLa rtTA-HIV(Gag-GFP) cells were seeded in 48-/12-well plates and pretreated with/without pathway inhibitor prior to treatment with drug/compounds and Dox. […] HIV-1 gene expression was determined by detecting Gag-GFP fluorescence in cells by plate scans using a Typhoon Imager 9400 (Amersham Biosciences) or Typhoon FLA 9400 (GE) on ImageQuant, cell lysates by SDS-PAGE captured on ChemiDoc MP, or cell lysates by p24^CA ELISA. […]

[1] = test system: host alternative RNA splicing; design: method as in PMID 22456266; conditions: of 8,175 analyzed, cited from earlier work

Row | SMILES | ERK1/2 activation (ERK1/2) | HIV-1 Gag expression (HIV-1 Gag expression) | host splicing events affected ([1]; q-value = 0, sepscore ≥ 1.0) | host splicing events affected, share of analyzed [1]
1 | COc1ccc(C[C@H]2NC[C@H](O)[C@H]2OC(C)=O)cc1 [anisomycin, Anisomycin] | activated | inhibited |  | 
2 | C[C@H]1O[C@@H](O[C@H]2[C@@H](O)C[C@H](O[C@H]3[C@@H](O)C[C@H](O[C@H]4CC[C@@]5(C)[C@H](CC[C@@H]6[C@@H]5CC[C@]5(C)[C@@H](C7=CC(=O)OC7)CC[C@]65O)C4)O[C@@H]3C)O[C@@H]2C)C[C@H](O)[C@@H]1O [Digitoxin] |  |  | 1681 events | ~ 20.6%
